Results taken from US11471387B2, “Oral cavity care method and oral cavity care system” (priority 2017, dated 2022).

How the values were obtained:
[1] = tested on: tissue cells (FIGS. 6A, 6C); test: Safety test, survival rate of tissue cells (FIGS. 6A and 6C)
[2] = tested on: tissue cells (FIGS. 6B, 6D); test: Safety test, survival rate of tissue cells (FIGS. 6B and 6D)

In the case of `[H]/N=C(\N/C(=N/[H])NCCCCCCNC(=N)NC(=N)Nc1ccc(Cl)cc1)Nc1ccc(Cl)cc1` [chlorhexidine], the “50% survival rate of tissue cells (time)” value ([1]; FIG. 6A) is reported as 10.8 h, the cytotoxicity with time ([1]; tissue cells of FIGS. 6A/6C) is reported as “cytotoxic with time” and the “50% survival rate of tissue cells (time)” value ([2]; FIG. 6B) is reported as 8.4 h. The cytotoxicity with time ([2]; tissue cells of FIGS. 6B/6D) was “cytotoxic with time”.
